The source of these data is patent US4442031A, “Immunopotentiating peptides” (Hoffmann-La Roche Inc., priority 1983, dated 1984).

Where no end group is shown, it is not given here.

The subject of assay [1] is Listeria monocytogenes EGD. Briefly: Protection against Listeria monocytogenes infection in 5-FU immunosuppressed mice. It counts as in vivo. The following applies: for Survivors at Day 15 after infection: Table 8, i.p., 5-FU immunosuppressed mice, control 2/10. The protocol: Normal mice (female ddY mice, 6 weeks old) were highly tolerant to infection with Candida albicans ATCC 10231 at relatively low dose (1-2×10^5 cells, iv.). However, when pretreated daily for ten times with 5-FU (25 mg/kg/day, ip.), the mice were susceptible to infection as shown in Table 6. […] Compound A was also shown to be active against infection with Pseudomonas aeruginosa 5E81-1 and Listeria monocytogenes EGD in the immunosuppressed mice (see Tables 7 and 8).

Assay [2] relates to Listeria monocytogenes EGD. Briefly: Growth of Listeria monocytogenes in liver of P388 tumor-bearing mice. It counts as in vivo. The following applies: for Growth of Bacteria (log10 /liver): Tumor-bearing CDF1 mice, i.p., seven times before infection, 3 days after infection, control 7.1. The source says:
The immunocompetence of tumor-bearing mice is known to be frequently deficient. This is illustrated by the fact that Listeria monocytogenes EGD grew considerably in tumor-bearing mice as compared to normal mice (see Table 9). Male CDF1 mice (6 weeks old) transplanted with P388 leukemia (3×10^5 cells, footpad) were infected with Listeria monocytogenes (2×10^3 cells, iv.) 7 days after the transplant. Three days thereafter the number of the bacteria grown in liver was counted.

For “KKEVVE [Compound A, L-Lysyl-L-lysyl-L-glutamyl-L-valyl-L-valyl-L-glutamic acid]”, the “Survivors at Day 15 after infection” value is on record as 8/10 in assay [1] (0.04 μg/kg/day), 6/10 in assay [1] (0.4 μg/kg/day) and 6/10 in assay [1] (4 μg/kg/day). Besides, in assay [1] (immunosuppressed mice), the “activity against infection (in words)” value is on record as “active”. In addition, the “Growth of Bacteria (log10 /liver)” value in assay [2] (0.4 μg/kg/day) was 6.0 log10 /liver; in assay [2] (4 μg/kg/day), 5.7 log10 /liver. In addition, the “growth of the bacteria in liver (in words)” value in assay [2] (tumor-bearing mice pretreated daily for seven times before infection) is reported as “growth of the bacteria was suppressed”.
Turning to “thymosin α1 (SDAAVDTSSEITTKDLKEKKEVVEEAEN; ends and bridges not checked; UniProt P01252 2-29, looked up) [peptide isolated from bovine thymus, stimulates maturation, differentiation and function of T cells; U.S. Pat. No. 4,079,127, reference compound]”, the “Survivors at Day 15 after infection” value in assay [1] (4 μg/kg/day) is listed as 7/10; in assay [1] (40 μg/kg/day) it was 5/10. Moreover, the figures for the “Growth of Bacteria (log10 /liver)” value in assay [2] (4 μg/kg/day) and in assay [2] (40 μg/kg/day) were 5.0 log10 /liver and 5.3 log10 /liver, respectively.
